# Source: US11503829B2, “Pesticidal compositions and related methods” (CJB Applied Technologies, LLC, priority 2020, dated 2022)
# Read-outs that look alike come from different tables or passages of the source.
# How the values were obtained:
# [1] = tested on: Didymella fungus that is resistant to azoxystrobin; assay: Petri dish radial growth bioassay, agar impregnated with Quadris and/or benzyl alcohol; format: cell-based
# [2] = tested on: natural population of lowland brush; assay: Woody brush control with Metsulfuron Methyl; conditions: MSM 1/5 oz/gal, no adjuvant; scale 1-5
# [3] = tested on: black rust (Puccinia graminis tritici); format: in vivo; conditions: wheat, tebuconazole 2 fl oz/acre, no adjuvant, 21 days after treatment
# [4] = Quadris 0 oz/ac, Benzyl Alcohol 6 oz/ac
smiles,measurement,setting,value
"OCc1ccccc1 [Benzyl Alcohol only, benzyl alcohol]","Radial growth, 24 Hours",[1]; [4],4.83
same,"Radial growth, 48 Hours",[1]; [4],8.42
same,"Radial growth, 72 Hours",[1]; [4],8.7
same,"Radial growth, 96 Hours",[1]; [4],13.98
same,"Radial growth, 120 Hours",[1]; [4],18.72
same,"Radial growth, 144 Hours",[1]; [4],25.05
same,Reduction in fungal growth (observation),"[1]; benzyl alcohol alone, petri dish",no reduction in fungal growth
COC(=O)c1ccccc1S(=O)(=O)NC(=O)Nc1nc(C)nc(OC)n1 [MSM Alone],Observation at 28 DAT,[2],2.0
"CC(C)(C)C(O)(CCc1ccc(Cl)cc1)Cn1cncn1 (stereo not shown) [Teb only, tebuconazole]",Disease Severity Rating,[3]; mix water 35° F.,51.3
same,Disease Severity Rating,[3]; mix water 70° F.,47
